Test results: ChEMBL document CHEMBL1123738, “Kinetics of solvolysis and muscarinic actions of an N-methyl-N-(2-bromoethyl)amino analogue of oxotremorine” (J Med Chem, 1987)

Columns and labels:
[1] = Rate of hydrolysis of compound at pH 7.3 and 22 degree Centigrade; type: ADME; conditions: buffer
[2] = Rate of hydrolysis of compound at pH 7.3 and 37 degree Centigrade; type: ADME; conditions: buffer
[3] = Rate of cyclization, as measured by rate of formation of compound at 22 degree Centigrade; type: ADME
[4] = Rate of cyclization, as measured by rate of formation of compound at 37 degree Centigrade; type: ADME
[5] = Half-life of compound at 22 degree Centigrade and pH 7.67 was determined; type: ADME
[6] = Rate of cyclization of compound at 22 degree Celsius and pH 4.24; type: ADME
[7] = Equipotent potent ratio relative to carbachol (nicotinic activity); type: ADME
[8] = Half-life of compound at 22 degree Celsius and pH 4.24 was determined; type: ADME
[9] = Half-life of compound at 22 degree Celsius and pH 6.25 was determined; type: ADME
[10] = Rate of cyclization of compound at 22 degree Celsius and pH 7.67; type: ADME
[11] = Half-life of compound at 22 degree Celsius and pH 7.29 was determined; type: ADME
[12] = First-order rate constant for cyclization of the free base; type: ADME
[13] = Rate of cyclization of compound at 22 degree Celsius and pH 7.29; type: ADME
[14] = Half-life of compound at 22 degree Celsius and pH 5.46 was determined; type: ADME
[15] = Rate of cyclization of compound at 22 degree Centigrade and pH 6.25; type: ADME
[16] = pKa value of compound was determined; type: physicochemical
[17] = Apparent first-order rate constant for bromide ion release at 37 degree Celsius and pH 7.3; type: ADME
[18] = Rate of cyclization of compound at 22 degree Celsius and pH 5.46; type: ADME

Row | Structure (SMILES) | k2 [1] | k2 [2] | k1 [3] | k1 [4] | half-life [5] | k1 [6] | Molar ratio [7] | half-life [8] | half-life [9] | k1 [10] | half-life [11] | k0 [12] | k1 [13] | half-life [14] | k1 [15] | pKa [16] | Rate constant [17] | k1 [18]
1 | C[N+]1(CC#CCN2CCCC2=O)CC1.[Br-] | 0.00829 min⁻¹ | 0.0395 min⁻¹ | 0.145 min⁻¹ | 0.845 min⁻¹ |  |  |  |  |  |  |  |  |  |  |  |  |  | 
2 | CN(CC#CCN1CCCC1=O)CCBr |  |  |  |  | 4.6 min | 0.00266 min⁻¹ | 12.3 | 261 min | 6.1 min | 0.1512 min⁻¹ | 4.9 min | 0.146 min⁻¹ | 0.1406 min⁻¹ | 10.2 min | 0.1146 min⁻¹ | 5.6 | 0.85 min⁻¹ | 0.0678 min⁻¹
